Measured values reported in patent US20260317310A1, “BENZO SIX-MEMBERED HETEROCYCLIC GSPT1 PROTEIN DEGRADATION AGENT AND USE THEREOF” (China Pharmaceutical University, priority 2023, published 2026).
Entries after “also recorded” stand apart in the source; their conditions may differ.

Legend:
KG-1 cells = experiment: Antiproliferative activity against KG-1 cells (CCK8, 72 h); type: cell-based; details: Homo sapiens
Description: KG-1 cells in the logarithmic growth phase were diluted in a culture medium (RPMI+10% FBS) and plated onto 96-well plates at 5000 cells/well, and the plates were incubated in an incubator at 37° C. with 5% CO2 for 24 hours. 10 mM stock solutions of the test compounds of the present disclosure in DMSO were prepared and diluted with the culture medium to set 9 concentration gradients. Three replicate wells were set for each concentration. After compound addition, the plates were incubated in an incubator at 37° C. with 5% CO2 for 72 hours. The cell proliferation was assessed using the CCK8 method. The cell growth inhibition IC50 values of the compounds were determined using an enzyme labeling method. The IC50 values were calculated using GraphPad Prism 7 software.
The antiproliferative activity of the compounds against KG-1 cells is shown in Table 2, where A represents IC50<1 nM, B represents 1<IC50<10 nM, C represents 10 nM≤IC50<100 nM, D represents 100 nM≤IC50<1000 nM, and E represents IC50≥1000 nM.

[1] = In vivo pharmacokinetic study in rats (IV and PO); design: species or system rat (SD); details: rat; for bioavailability: plasma, PO 10 mg/kg (IV 2 mg/kg); for clearance rate relative to CC-90009 / half-life relative to CC-90009 / initial plasma concentration relative to CC-90009 / plasma drug exposure level relative to CC-90009: IV
Description: Sample collection and preparation: After SPF SD rats (male, 210-230 g, 42-48 days, RILD Liver) in a good growth state were dosed intravenously at 2 mg/kg and orally at 10 mg/kg, blood samples were collected via the orbit at different blood collection time points and transferred to centrifuge tubes containing an anticoagulant; the intravenous blood collection time points were 0.08 hours, 0.25 hours, 0.5 hours, 1 hour, 2 hours, 4 hours, 6 hours, 8 hours, and 24 hours, and the oral blood collection time points were 0.25 hours, 0.5 hours, 1 hour, 2 hours, 4 hours, 6 hours, 8 hours, and 24 hours. The blood samples were immediately centrifuged at 4° C. and 8000 rpm for 10 minutes, and the plasma was collected and stored in an ultra-low-temperature freezer at −80° C. until it was analyzed by LC-MS/MS.
Pharmacokinetic data analysis: Pharmacokinetic parameters of the compounds were calculated using pharmacokinetic software in a non-compartmental model. The peak plasma concentration (Cmax) and the time to reach the peak plasma concentration (Tmax) were taken as observation values. Parameters such as the half-life T1/2, the areas under the plasma concentration-time curve AUClast and AUCinf, the apparent volume of distribution Vss, and the clearance rate CL were determined through regression analysis of the linear terminal portion of the logarithmic plasma concentration-time curve and the linear trapezoidal rule.

[2] = Body weight in MV411 xenograft mice; type: in vivo, BABL/c Nude mouse; details: A-10 15, 30, 60 mg/kg, A-42 60 mg/kg, oral
Description: (§1) The human leukemia cells MV411 (Cell Bank, Chinese Academy of Sciences) used in this experiment were cultured in an IMDM culture medium supplemented with 10% FBS in an incubator containing CO2 at 37° C. Before the cells were continuously sub-cultured to the tenth generation, MV411 cells in the logarithmic growth phase were used, and the cell concentration was adjusted to 1×10^8 cells/mL with a serum-free culture medium. Each BABL/c Nude mouse (Jiangsu GemPharmatech Co., Ltd., female, 4-6 weeks old, 14-16 g) was inoculated with […] of the cell suspension by subcutaneous injection on the right dorsal side (near the axilla) under sterile conditions. When the mean tumor volume of the tumor-bearing mice reached approximately 100 mm^3, the mice were randomly divided into groups, with the tumor volume in each group being roughly the same. The day of grouping and administration was defined as day 0. The animals in each treatment group were given a compound once daily by oral gavage at 15 mg/kg, 30 mg/kg, or 60 mg/kg. The body weight and tumor volume of the animals were measured every other day.

GSPT1 [3] = biological target: T1, GSPT1 (Homo sapiens, UniProt P15170); experiment: Degradation of GSPT1 in KG-1 cells (immunoblot, 200 nM, 4 h); type: cell-based; design: endogenous in cells; host or cells: KG-1; details: FIGS. 1 and 2
T1 sequence (P15170 whole entry): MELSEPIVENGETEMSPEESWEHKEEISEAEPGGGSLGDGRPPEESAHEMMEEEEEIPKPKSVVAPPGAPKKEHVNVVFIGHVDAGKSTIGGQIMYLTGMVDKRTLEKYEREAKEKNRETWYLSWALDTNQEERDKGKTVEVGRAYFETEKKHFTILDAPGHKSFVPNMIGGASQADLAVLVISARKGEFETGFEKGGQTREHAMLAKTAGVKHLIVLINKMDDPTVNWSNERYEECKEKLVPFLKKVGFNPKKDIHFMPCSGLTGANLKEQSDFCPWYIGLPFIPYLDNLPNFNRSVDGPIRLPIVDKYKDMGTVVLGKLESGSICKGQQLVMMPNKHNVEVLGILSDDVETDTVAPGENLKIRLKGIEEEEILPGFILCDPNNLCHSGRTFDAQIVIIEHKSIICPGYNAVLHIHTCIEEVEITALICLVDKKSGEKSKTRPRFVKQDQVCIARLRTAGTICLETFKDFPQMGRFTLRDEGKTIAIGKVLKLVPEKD
Description: KG-1 cells (ATCC) were grown in an IMDM culture medium (containing 20% FBS). After centrifugation and counting, the cell concentration was adjusted. The cells were plated onto 6-well plates at 10^6 cells/well, with 1350 μL per well. 150 μL of DMSO and the test compounds of the present disclosure (compound concentration: 200 nM) were added. The plates were incubated in an incubator at 37° C. with 5% CO2 for 4 hours. The cells were centrifuged, and the culture medium was discarded. PBS was added to wash the cells and then discarded. Whole cell lysates were prepared using a protease inhibitor cocktail (100×, Fude Biological), a protein phosphatase inhibitor cocktail (100×, Fude Biological), SuperNuclease (Beyotime), and a high-intensity RIPA lysis buffer (Thermo Fisher) and placed on ice for 30 minutes. After centrifugation, the cell debris precipitates were discarded, and the whole cell lysate supernatants were collected and transferred to new centrifuge tubes. After a BCA protein assay, samples were prepared using a 5× loading buffer (Thermo Fisher). […] Signals were detected using a MINICHEMI™ imaging system. […]

GSPT1 [4] = biological target: T1, GSPT1; experiment: Degradation of GSPT1 in MV4-11 cells (FIG. 1C, 1D); type: cell-based; design: endogenous in cells; details: FIGS. 1 and 2
GSPT1 [5] = biological target: T1, GSPT1; experiment: Time-dependent degradation of GSPT1 in AML cells (FIG. 2); type: cell-based; design: KG-1 cells (ATCC) were grown in an IMDM culture medium; endogenous in cells; host or cells: KG-1
22RV1 xenograft = experiment: In vivo pharmacodynamic study in 22RV1 prostate cancer xenograft mouse model; design: species or system 22RV1 cells in BABL/c Nude mouse
Description: The 22RV1 cells (Cell Bank, Chinese Academy of Sciences) used in this experiment were cultured in a 1640 culture medium supplemented with 10% FBS in an incubator containing CO2 at 37° C. Before the cells were continuously sub-cultured to the tenth generation, 22RV1 cells in the logarithmic growth phase were used, and the cell concentration was adjusted to 5×10^7 cells/mL with a serum-free culture medium. Each BABL/c Nude mouse was inoculated with […] of the cell suspension by subcutaneous injection on the right dorsal side (near the axilla) under sterile conditions. When the mean tumor volume of the tumor-bearing mice reached approximately 50-100 mm^3, the mice were randomly divided into 4 groups of 8, with the tumor volume in each group being roughly the same. The day of grouping and administration was defined as day 0. The animals in each treatment group were given a compound once daily by oral gavage at 60 mg/kg.
The body weight and tumor volume of the animals were measured every other day.
(§2) Experimental indicator: The anti-tumor efficacy of the compounds was evaluated using the relative tumor growth inhibition rate (TGI). Tumor weight TGI (%)={1−[(final average tumor weight of experimental group)/(final average tumor weight of control group of tumor-bearing mice without administration)]}×100%.

MV411 xenograft = experiment: In vivo pharmacodynamic study in MV411 acute myeloid leukemia xenograft mouse model; design: species or system human leukemia cells in BABL/c Nude mouse
Description: as §1
as §2, with “administration)]}×100%. Tumor volume TGI (%)=[1−relative tumor volume of experimental group/relative tumor volume of control group of tumor-bearing mice without administration]×100%.” for “administration)]}×100%.”

[6] = Metabolic stability in in vitro rat liver microsomes; type: in vitro ADME; details: NADPH, 37° C.
Source text: RLMs were purchased from RILD Liver.

[7] = 60 mg/kg once daily oral gavage

plasma drug exposure level relative to CC-90009 ([1]; compared to CC-90009) | Compound | bioavailability [1] [%] | weight loss in mice [2] | dependence of GSPT1 degradation on concentration and time (GSPT1 [3]) | dependence of GSPT1 degradation on concentration and time (GSPT1 [4]) | clearance rate relative to CC-90009 ([1]; compared to CC-90009) | half-life relative to CC-90009 ([1]; compared to CC-90009) | initial plasma concentration relative to CC-90009 ([1]; compared to CC-90009) | exposure level relative to CC-90009 ([1]; oral, compared to CC-90009) | other results
– | Cc1cc2c(cc1Cl)C=C(C(=O)NCc1ccc3c(c1)CN(C1CCC(=O)NC1=O)C3=O)CO2 (centres unmarked) [Compound A-28] | – | – | – | – | – | – | – | – | IC50 (KG-1 cells): 10 to 100 nM
– | O=C1CCC(N2Cc3cc(CNC(=O)C(F)(F)c4ccc(Cl)cc4)ccc3C2=O)C(=O)N1 (centres unmarked) [CC-90009, reference compound] | 31.2 ± 9.1 | – | – | – | – | – | – | – | –
greatly superior to those of CC-90009 | O=C1CCC(N2Cc3cc(CNC(=O)C4=Cc5ccccc5OC4)ccc3C2=O)C(=O)N1 (centres unmarked) [Compound A-1, N-((2-(2,6-Dioxopiperidin-3-yl)-1-oxoisoindolin-5-yl)methyl)-2H-chromene-3-carboxamide] | 19.3 ± 3.4 | – | concentration-dependent and time-dependent; also recorded: more significant than that of CC-90009 | concentration-dependent and time-dependent; also recorded: more significant than that of CC-90009 | less than that of the clinical drug CC-90009 | close to that of CC-90009 | greatly superior to those of CC-90009 | – | RLM CL [6]: 3.75 µL/min/mg; RLM T1/2 [6]: 6.1657 h
fourteen times | O=C1CCC(N2Cc3c(ccc(CNC(=O)C4=Cc5cc(OC(F)(F)F)ccc5OC4)c3F)C2=O)C(=O)N1 (centres unmarked) [Compound A-42, N-((2-(2,6-Dioxopiperidin-3-yl)-4-fluoro-1-oxoisoindolin-5-yl)methyl)-6-(trifluoromethoxy)-2H-chromene-3-carboxamide] | 9.8 ± 1.5 | no significant weight loss | – | – | lower clearance rate | – | – | four times | in vivo anti-tumor effect compared to MRT-2359 (MV411 xenograft; MV411 xenograft, 60 mg/kg oral gavage, vs MRT-2359): comparable to that of the clinical molecule MRT-2359

Compound | plasma drug exposure level relative to CC-90009 ([1]; compared to CC-90009) | bioavailability [1] [%] | weight loss in mice [2] | dependence of GSPT1 degradation on concentration and time (GSPT1 [3]) | dependence of GSPT1 degradation on concentration and time (GSPT1 [4]) | clearance rate relative to CC-90009 ([1]; compared to CC-90009) | half-life relative to CC-90009 ([1]; compared to CC-90009) | initial plasma concentration relative to CC-90009 ([1]; compared to CC-90009) | exposure level relative to CC-90009 ([1]; oral, compared to CC-90009) | other results
O=C1CCC(N2Cc3cc(CNC(=O)C4=Cc5cc(OC(F)(F)F)ccc5OC4)ccc3C2=O)C(=O)N1 (centres unmarked) [Compound A-10, N-((2-(2,6-Dioxopiperidin-3-yl)-1-oxoisoindolin-5-yl)methyl)-6-trifluoromethoxy-2H-chromene-3-carboxamide] | nearly four times that of CC-90009 | 22.9 ± 12.6 | no significant weight loss | concentration-dependent | concentration-dependent | one third of that of CC-90009 | longer than that of CC-90009 | much higher than that of CC-90009 | nearly three times that of CC-90009 | time-dependent degradation of GSPT1 (GSPT1 [5]): time-dependent; TGI (22RV1 xenograft; [7]): 95.10%; TGI compared to CC-90009 and enzalutamide (22RV1 xenograft; 22RV1 xenograft, 60 mg/kg oral gavage): significantly better than those of the clinical molecule CC-90009 and the commercially available drug enzalutamide; peak ([1]; oral, compared to CC-90009): relatively high peak; time to peak ([1]; oral, compared to CC-90009): relatively small time to peak; tumor weight TGI (MV411 xenograft; 15 mg/kg once daily oral gavage): 20.82%; tumor weight TGI (MV411 xenograft; 30 mg/kg once daily oral gavage): 56.61%; tumor weight TGI (MV411 xenograft; [7]): 59.76%; in vivo anti-tumor effect compared to CC-90009 (MV411 xenograft; MV411 xenograft, oral gavage, vs CC-90009): significantly better than that of the clinical molecule CC-90009
